Source: US20220389061A1, “IMMUNOMODULATORS” (priority 2019, published 2022)
Where two headings read alike, the source gives them in different places. Starred links: 1 amine or outer side, 2 acyl side, 3 side chain; linkers in the order of their positions; H or OH if unused. Positions of bridges follow the written chain, without caps; N, C: chain ends. Non-standard residues stand in square brackets, D forms with d. Residues, ends and D or L forms follow the SMILES beside them. Groups on a side chain read outwards from the residue. *: point of attachment. Trp(1-CH2COOH) = N[C@@H](Cc1cn(CC(=O)O)c2ccccc12)C(=O)O; NH(2-Cl-4-NO2-phenyl) = O=[N+]([O-])c1ccc(N*)c(Cl)c1; X18 = O=[N+]([O-])c1ccc(NC(=S)*)c(Cl)c1; X13 = O=[N+]([O-])c1ccc(NC(=S)*)cc1; X95 = O=[N+]([O-])c1cccc(NC(=S)*)c1; Hyp = O=C(O)[C@@H]1C[C@@H](O)CN1; X56 = COc1cc([N+](=O)[O-])ccc1N*; NMeNle = CCCC[C@H](NC)C(=O)O; NMeA = CN[C@@H](C)C(=O)O; Dab = NCC[C@H](N)C(=O)O; Dap = NC[C@H](N)C(=O)O; CO = O=C([*:1])[*:2]

Target: T1, PD-1/PD-L1 (Homo sapiens, UniProt Q9NZQ7)
T1 construct: TVMV protease site linker (C); made in house; host or cells: HEK293T cells
Test: PD-1/PD-L1 Homogenous Time-Resolved Fluorescence (HTRF) binding assay
How it was run: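 HTRF read-out using europium cryptate anti-Ig (1 nM) and APC anti-His (20 nM) on extracellular-domain fusion proteins in dPBS/0.1% BSA/0.05% Tween-20. Inhibitor first incubated 15 min with 10 nM PD-L1-His, followed by 20 nM PD-1-Ig for another 15 min.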

[1] = PD-L1-His 10 nM pre-incubated with inhibitor, PD-1-Ig 20 nM, read-out: HTRF IC50

T1 sequence (Q9NZQ7 18-239): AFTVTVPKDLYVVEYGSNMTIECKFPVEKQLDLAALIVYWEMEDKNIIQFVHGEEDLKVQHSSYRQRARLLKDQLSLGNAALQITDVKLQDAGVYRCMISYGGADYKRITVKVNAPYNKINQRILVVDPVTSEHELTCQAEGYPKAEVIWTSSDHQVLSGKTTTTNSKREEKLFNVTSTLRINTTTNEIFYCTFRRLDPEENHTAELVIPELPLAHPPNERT

| SMILES | IC50 [1] [nM] | IC50 [nM] |
| --- | --- | --- |
| CCCC[C@H]1C(=O)N(C)[C@@H](CCCC)C(=O)N[C@@H](CC(C)C)C(=O)N[C@H](C(=O)NCC(N)=O)CSCC(=O)N[C@@H](Cc2ccc(O)cc2)C(=O)N(C)[C@@H](C)C(=O)N[C@@H](CC(N)=O)C(=O)N2CCC[C@H]2C(=O)N[C@@H](CNC(=S)Nc2cccc([N+](=O)[O-])c2)C(=O)N[C@@H](CC(C)C)C(=O)N2C[C@H](O)C[C@H]2C(=O)N[C@@H](Cc2c[nH]c3ccccc23)C(=O)N[C@@H](CCN)C(=O)N[C@@H](Cc2cn(CC(=O)O)c3ccccc23)C(=O)N1C [Example 1037] ({CH2CO}-Y[NMeA]NP[Dap](X95)L[Hyp]W[Dab][Trp(1-CH2COOH)][NMeNle][NMeNle]LCG-NH2; thioether N-14) | 2.8 |  |
| CCCC[C@H]1C(=O)N(C)[C@@H](CCCC)C(=O)N[C@@H](CC(C)C)C(=O)N[C@H](C(=O)NCC(N)=O)CSCC(=O)N[C@@H](Cc2ccc(O)cc2)C(=O)N(C)[C@@H](C)C(=O)N[C@@H](CC(N)=O)C(=O)N2CCC[C@H]2C(=O)N[C@@H](CNC(=O)Nc2ccc([N+](=O)[O-])cc2Cl)C(=O)N[C@@H](CC(C)C)C(=O)N2C[C@H](O)C[C@H]2C(=O)N[C@@H](Cc2c[nH]c3ccccc23)C(=O)N[C@@H](CCNC(=O)Nc2ccc([N+](=O)[O-])cc2Cl)C(=O)N[C@@H](Cc2cn(CC(=O)O)c3ccccc23)C(=O)N1C [Example 1096] ({CH2CO}-Y[NMeA]NP[Dap]([CO-NH(2-Cl-4-NO2-phenyl)])L[Hyp]W[Dab]([CO-NH(2-Cl-4-NO2-phenyl)])[Trp(1-CH2COOH)][NMeNle][NMeNle]LCG-NH2; thioether N-14) |  | 6.9 |
| CCCC[C@H]1C(=O)N(C)[C@@H](CCCC)C(=O)N[C@@H](CC(C)C)C(=O)N[C@H](C(=O)NCC(N)=O)CSCC(=O)N[C@@H](Cc2ccc(O)cc2)C(=O)N(C)[C@@H](C)C(=O)N[C@@H](CC(N)=O)C(=O)N2CCC[C@H]2C(=O)N[C@@H](CNC(=S)Nc2ccc([N+](=O)[O-])cc2)C(=O)N[C@@H](CC(C)C)C(=O)N2C[C@H](O)C[C@H]2C(=O)N[C@@H](Cc2c[nH]c3ccccc23)C(=O)N[C@@H](CCNC(=S)Nc2ccc([N+](=O)[O-])cc2)C(=O)N[C@@H](Cc2cn(CC(=O)O)c3ccccc23)C(=O)N1C [Example 1025] ({CH2CO}-Y[NMeA]NP[Dap](X13)L[Hyp]W[Dab](X13)[Trp(1-CH2COOH)][NMeNle][NMeNle]LCG-NH2; thioether N-14) |  | 0.8 |
| CCCC[C@H]1C(=O)N(C)[C@@H](CCCC)C(=O)N[C@@H](CC(C)C)C(=O)N[C@H](C(=O)NCC(N)=O)CSCC(=O)N[C@@H](Cc2ccc(O)cc2)C(=O)N(C)[C@@H](C)C(=O)N[C@@H](CC(N)=O)C(=O)N2CCC[C@H]2C(=O)N[C@@H](CNC(=O)Nc2ccc([N+](=O)[O-])cc2OC)C(=O)N[C@@H](CC(C)C)C(=O)N2C[C@H](O)C[C@H]2C(=O)N[C@@H](Cc2c[nH]c3ccccc23)C(=O)N[C@@H](CCN)C(=O)N[C@@H](Cc2cn(CC(=O)O)c3ccccc23)C(=O)N1C [Example 1108] ({CH2CO}-Y[NMeA]NP[Dap]([CO-X56])L[Hyp]W[Dab][Trp(1-CH2COOH)][NMeNle][NMeNle]LCG-NH2; thioether N-14) | 2.4 |  |
| CCCC[C@H]1C(=O)N(C)[C@@H](CCCC)C(=O)N[C@@H](CC(C)C)C(=O)N[C@H](C(=O)NCC(N)=O)CSCC(=O)N[C@@H](Cc2ccc(O)cc2)C(=O)N(C)[C@@H](C)C(=O)N[C@@H](CC(N)=O)C(=O)N2CCC[C@H]2C(=O)N[C@@H](CNC(=S)Nc2ccc([N+](=O)[O-])cc2Cl)C(=O)N[C@@H](CC(C)C)C(=O)N2C[C@H](O)C[C@H]2C(=O)N[C@@H](Cc2c[nH]c3ccccc23)C(=O)N[C@@H](CCNC(=S)Nc2ccc([N+](=O)[O-])cc2Cl)C(=O)N[C@@H](Cc2cn(CC(=O)O)c3ccccc23)C(=O)N1C [Example 1103] ({CH2CO}-Y[NMeA]NP[Dap](X18)L[Hyp]W[Dab](X18)[Trp(1-CH2COOH)][NMeNle][NMeNle]LCG-NH2; thioether N-14) |  | 6.5 |
